The values below come from patent US9255072B2, “Pyrazole compounds and thiazole compounds as protein kinases inhibitors” (National Health Rsearch Institutes, priority 2011, dated 2016).

SMILES strings stand for the structures. Where two headings read alike, the source gives them in different places.

Format in all cases: biochemical
Test [1] concerns the target T1, VEGFR2 (Homo sapiens, UniProt P35968).
T1 construct: GST-VEGFR2 (residues V789-V1356); GST (N); made in house; host or cells: Sf9 insect cells
Description: VEGFR2 Kinase-Glo kinase assay. The settings on record: 1 μM ATP. As for the experimental part:
(§1) The recombinant GST-VEGFR1 (residues R781-I1338) or GST-VEGFR2 (residues V789-V1356) containing kinase domain were expressed in Sf9 insect cells. The kinase assay were carried out in 96-well plates with tested compound in a final volume of 50 μl reaction at 30° C. for 120 minutes with following components: 25 mM HEPES pH 7.4, 10 mM MgCl2, 4 mM MnCl2, 0.5 mM Na3VO4, 2 mM DTT, 0.02% Triton X100, 0.01% BSA, 1 μM ATP, 2 μM polyGlu4:Tyr peptide, 50˜100 ng recombinant VEGFR1 or VEGFR2. Following incubation, 50 μl Kinase-Glo Plus Reagent (Promega, Madison, Wis., USA) was added to each well and the mixture was incubated at 25° C. for 20 min. A 70-μL aliquot of each reaction mixture was transferred to a black microtiter plate and the luminescence was measured on Wallac Vector 1420 multilabel counter (PerkinElmer, Shelton, Conn., USA).
(In Kinase-Glo more light means more ATP remaining.)

The target in test [2] is T2, wt-FLT3 (Homo sapiens, UniProt P36888).
T2 construct: FLT3 kinase catalytic domain (residues Y567˜S993); made in house; host or cells: Sf9 insect cells (baculovirus, pBac-PAK8-GST-FLT3-KD plasmid)
T2 sequence (P36888 567-993): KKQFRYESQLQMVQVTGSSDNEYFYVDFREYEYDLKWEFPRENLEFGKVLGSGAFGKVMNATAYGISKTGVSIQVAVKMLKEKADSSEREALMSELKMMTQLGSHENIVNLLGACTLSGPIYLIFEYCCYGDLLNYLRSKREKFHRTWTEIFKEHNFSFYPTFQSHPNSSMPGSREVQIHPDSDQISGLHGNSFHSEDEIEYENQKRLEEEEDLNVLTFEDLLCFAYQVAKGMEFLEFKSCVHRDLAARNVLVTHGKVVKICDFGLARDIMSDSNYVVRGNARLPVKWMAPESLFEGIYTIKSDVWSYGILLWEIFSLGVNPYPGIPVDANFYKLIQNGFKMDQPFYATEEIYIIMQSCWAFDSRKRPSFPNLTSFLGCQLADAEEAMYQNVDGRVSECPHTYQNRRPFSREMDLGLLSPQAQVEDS
In words: FLT3 WT Kinase-Glo assay. The settings on record: FLT3 WT Kinase-Glo, 1 μM ATP; read-out: IC50. As for the experimental part: GST-FLT3-KD^WT containing the FLT3 kinase catalytic domain (residues Y567˜S993) were expressed in Sf9 insect cells transfected the baculovirus containing pBac-PAK8-GST-FLT3-KD plasmid. […] Following incubation, 50 μl Kinase-Glo Plus Reagent (Promega, Madison, Wis., USA) was added to each well and the mixture was incubated at 25° C. for 20 min. A 70-μL aliquot of each reaction mixture was transferred to a black microtiter plate and the luminescence was measured on Wallac Vector 1420 multilabel counter (PerkinElmer, Shelton, Conn., USA).

Test [3] deals with T3, VEGFR1 (Homo sapiens, UniProt P17948).
T3 construct: GST-VEGFR1 (residues R781-I1338); GST (N); made in house; host or cells: Sf9 insect cells
T3 sequence (P17948 781-1338): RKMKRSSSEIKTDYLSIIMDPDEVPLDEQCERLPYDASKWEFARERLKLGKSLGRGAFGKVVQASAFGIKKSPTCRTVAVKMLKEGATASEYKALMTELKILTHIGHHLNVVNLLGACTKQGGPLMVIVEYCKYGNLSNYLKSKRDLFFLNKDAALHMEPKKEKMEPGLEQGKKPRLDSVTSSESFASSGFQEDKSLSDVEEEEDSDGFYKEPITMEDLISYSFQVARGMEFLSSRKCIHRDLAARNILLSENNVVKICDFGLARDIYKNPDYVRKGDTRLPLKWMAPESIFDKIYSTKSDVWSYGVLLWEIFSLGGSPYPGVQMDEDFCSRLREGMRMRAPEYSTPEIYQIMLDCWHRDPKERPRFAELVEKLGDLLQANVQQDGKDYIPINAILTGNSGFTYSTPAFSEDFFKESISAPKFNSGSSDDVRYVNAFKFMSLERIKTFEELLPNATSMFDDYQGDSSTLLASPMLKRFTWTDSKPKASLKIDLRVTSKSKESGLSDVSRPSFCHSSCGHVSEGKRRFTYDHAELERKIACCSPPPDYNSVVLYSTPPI
Description: VEGFR1 Kinase-Glo kinase assay. The settings on record: 1 μM ATP. The procedure:
as §1

The mark [4] stands for this setting: VEGFR2 assay, bound in μM, read-out: IC50.
The mark [5] stands for this setting: VEGFR2 assay, ranges in nM, read-out: IC50.
The mark [6] stands for this setting: VEGFR1 assay, bound in μM, read-out: IC50.
Setting [7] is: VEGFR1 assay, bound in nM, read-out: IC50.
Where [8] appears, read: IC50, VEGFR2 assay, bound in μM.
[9] abbreviates: IC50, VEGFR2 assay, ranges in nM.
Setting [10] is: IC50, VEGFR1 assay, bound in μM.

T1 sequence (P35968 789-1356): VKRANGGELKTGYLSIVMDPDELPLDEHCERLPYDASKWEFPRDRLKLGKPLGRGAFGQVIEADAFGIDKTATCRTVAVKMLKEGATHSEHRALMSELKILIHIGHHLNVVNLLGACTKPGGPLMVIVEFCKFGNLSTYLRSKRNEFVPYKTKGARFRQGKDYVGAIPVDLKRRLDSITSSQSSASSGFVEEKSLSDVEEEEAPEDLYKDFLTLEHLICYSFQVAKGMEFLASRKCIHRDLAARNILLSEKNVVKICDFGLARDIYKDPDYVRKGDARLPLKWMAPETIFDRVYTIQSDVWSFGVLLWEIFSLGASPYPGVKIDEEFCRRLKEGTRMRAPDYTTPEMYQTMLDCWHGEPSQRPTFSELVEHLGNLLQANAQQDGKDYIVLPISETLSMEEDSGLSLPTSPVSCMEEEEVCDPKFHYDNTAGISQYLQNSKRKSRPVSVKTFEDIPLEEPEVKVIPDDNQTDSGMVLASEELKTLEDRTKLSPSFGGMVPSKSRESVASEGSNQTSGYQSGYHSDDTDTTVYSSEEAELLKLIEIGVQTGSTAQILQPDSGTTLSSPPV

As usually defined, the IC50 is the concentration at which inhibition is half-maximal. `CN1CCN(c2ccc(C(=O)Nc3cc(-c4ccc(CNC(=O)Nc5ccccc5)cc4)n[nH]3)cc2)CC1` [Compound 51, N1-[3-(4-[(anilinocarbonyl)amino]methylphenyl)-1H-5-pyrazolyl]-4-(4-methylpiperazino)benzamide]: the IC50 in test [1] (setting [4]) is under 1 µM; in test [1] (setting [5]), 0.001 to 0.055 µM; in test [2], 1 to 20 nM.

For `Cc1cc(COC(=O)NCc2ccc(-c3cc(NC(=O)c4ccc(N5CCN(C)CC5)cc4)[nH]n3)cc2)no1` [Compound 75, (5-Methyl-3-isoxazolyl)methyl-N-[4-(5-[4-(4-methylpiperazino)benzoyl]amino-1H-3-pyrazolyl)benzyl]carbamate], the IC50 is under 1 µM in test [1] (setting [4]), 0.055 to 0.4 µM in test [1] (setting [5]), under 1 µM in test [3] (setting [6]) and 1 to 20 nM in test [2].

As to `Cc1nc(Nc2cc(-c3ccc(CNC(=O)OCc4cc(C)on4)cc3)n[nH]2)cc(N2CCN(C)CC2)n1` [Compound 99, (5-Methyl-3-isoxazolyl)methyl-N-[4-(5-[2-methyl-6-(4-methylpiperazino)-4-pyrimidinyl]amino-1H-3-pyrazolyl)benzyl]carbamate], in test [2], the IC50 lay within 1 to 20 nM.

With `CN1CCN(Cc2ccc(C(=O)Nc3cc(-c4ccc(CNC(=O)OCc5ccccc5)cc4)n[nH]3)cc2)CC1` [Compound 77, Benzyl-N-4-[5-(4-[(4-methylpiperazino)methyl]benzoylamino)-1H-3-pyrazolyl]benzylcarbamate], the concentration for half-maximal inhibition (IC50) in test [2] lay in the range of 1 to 20 nM.

As to `O=C(NCc1ccc(-c2cc(NC(=O)c3ccc(OCCN4CCCC4)cc3)[nH]n2)cc1)OCc1ccccc1` [Compound 73, Benzyl-N-[4-(5-[4-(2-tetrahydro-1H-1-pyrrolylethoxy)benzoyl]amino-1H-3-pyrazolyl)benzyl]carbamate], the IC50 is under 1 µM in test [1] (setting [4]); 0.055 to 0.4 µM in test [1] (setting [5]); under 0.1 µM in test [3] (setting [7]); under 1 µM in test [3] (setting [6]); 1 to 20 nM in test [2].

Regarding `O=C(Nc1cc(-c2cccc(NS(=O)(=O)c3ccccc3)c2)n[nH]1)c1ccc(OCCN2CCCC2)cc1` [Compound 24, N1-(3-3-[(phenylsulfonyl)amino]phenyl-1H-5-pyrazolyl)-4-(2-tetrahydro-1H-1-pyrrolylethoxy)benzamide], the IC50 in test [1] (setting [4]) was under 1 µM; in test [1] (setting [5]) it was 0.055 to 0.4 µM; in test [3] (setting [6]), under 1 µM; in test [2], 1 to 20 nM.

On to `CC(C)(C)c1cc(NC(=O)NCc2ccc(-c3cc(NC(=O)c4ccc(OCCN5CCOCC5)cc4)[nH]n3)cc2)no1` [Compound 60, N1-[3-(4-[([5-(tert-butyl)-3-isoxazolyl]aminocarbonyl)amino]methylphenyl)-1H-5-pyrazolyl]-4-(2-morpholinoethoxy)benzamide], for which the IC50 is under 1 µM in test [1] (setting [4]), 0.001 to 0.055 µM in test [1] (setting [5]) and 1 to 20 nM in test [2].

Consider `O=C(NCc1ccc(-c2cc(NC(=O)c3ccc(OCCN4CCOCC4)cc3)[nH]n2)cc1)OCc1cccnc1` [Compound 80, 3-Pyridylmethyl-N-[4-(5-[4-(2-morpholinoethoxy)benzoyl]amino-1H-3-pyrazolyl)benzyl]carbamate], for which, in test [2], the IC50 was 1 to 20 nM.

With `Cc1nc(Nc2cc(-c3ccc(CNC(=O)OCc4ccccc4)cc3)n[nH]2)cc(N2CCN(CCO)CC2)n1` [Compound 97, Benzyl-N-4-[5-(6-[4-(2-hydroxyethyl)piperazino]-2-methyl-4-pyrimidinylamino)-1H-3-pyrazolyl]benzylcarbamate], the IC50 in test [1] (setting [4]) was under 1 µM; in test [1] (setting [5]), 0.055 to 0.4 µM; in test [2], 1 to 20 nM.

For `CN1CCN(c2ccc(C(=O)Nc3cc(-c4ccc(N)cc4)n[nH]3)cc2)CC1` [Compound 2, N1-[3-(4-aminophenyl)-1H-5-pyrazolyl]-4-(4-methylpiperazino)benzamide], in test [2], the IC50 lay within 1 to 20 nM.

In the case of `Cc1cc(-c2cc(NC(=O)c3ccc(N4CCN(C)CC4)cc3)[nH]n2)ccc1N` [Compound 6, N1-[3-(4-amino-3-methylphenyl)-1H-5-pyrazolyl]-4-(4-methylpiperazino)benzamide], the IC50 was under 1 µM in test [1] (setting [4]), 0.055 to 0.4 µM in test [1] (setting [5]) and 1 to 20 nM in test [2].

As for `CN1CCN(c2ccc(C(=O)Nc3cc(-c4ccc(NC(=O)Oc5ccccc5)cc4)n[nH]3)cc2)CC1` [Compound 68, Phenyl-N-[4-(5-[4-(4-methylpiperazino)benzoyl]amino-1H-3-pyrazolyl)phenyl]carbamate], the IC50 in test [1] (setting [8]) was under 1 µM; in test [1] (setting [9]), 0.055 to 0.4 µM; in test [3] (setting [10]), under 1 µM; in test [2], 1 to 20 nM.

On to `CN1CCN(c2ccc(C(=O)Nc3cc(-c4ccc(CNC(=O)Oc5ccccc5)cc4)n[nH]3)cc2)CC1` [Compound 82, Phenyl-N-[4-(5-[4-(4-methylpiperazino)benzoyl]amino-1H-3-pyrazolyl)benzyl]carbamate], for which the IC50 was under 1 µM in test [1] (setting [8]); 0.055 to 0.4 µM in test [1] (setting [9]); under 0.1 µM in test [3] (IC50, VEGFR1 assay, bound in nM); under 1 µM in test [3] (setting [10]); 1 to 20 nM in test [2].

For the compound `CN1CCN(c2ccc(C(=O)Nc3cc(-c4ccc(NC(=O)Nc5cc(C(C)(C)C)on5)cc4)n[nH]3)cc2)CC1` [Compound 37, N1-(3-4-[([5-(tert-butyl)-3-isoxazolyl]aminocarbonyl)amino]phenyl-1H-5-pyrazolyl)-4-(4-methylpiperazino)benzamide], the IC50 in test [1] (setting [4]) was under 1 µM; in test [1] (setting [5]), 0.001 to 0.055 µM; in test [3] (setting [7]) it was under 0.1 µM; in test [3] (setting [6]), under 1 µM; in test [2], 1 to 20 nM.

In the case of `CN1CCN(c2ccc(C(=O)Nc3cc(-c4ccc(CNC(=O)c5ccccc5)cc4)n[nH]3)cc2)CC1` [Compound 11, N1-(3-4-[(benzoylamino)methyl]phenyl-1H-5-pyrazolyl)-4-(4-methylpiperazino)benzamide], the IC50 in test [2] lay in the range of 1 to 20 nM.

Consider `Cc1nc(Nc2cc(-c3ccc(CNC(=O)OCc4cccnc4)cc3)n[nH]2)cc(N2CCN(C)CC2)n1` [Compound 101, 3-Pyridylmethyl-N-[4-(5-[2-methyl-6-(4-methylpiperazino)-4-pyrimidinyl]amino-1H-3-pyrazolyl)benzyl]carbamate], for which the IC50 in test [2] fell in the range of 1 to 20 nM.

For `Cc1cc(NC(=O)NCc2ccc(-c3cc(NC(=O)c4ccc(OCCN5CCCC5)cc4)[nH]n3)cc2)no1` [Compound 57, N1-(3-4-[([(5-methyl-3-isoxazolyl)amino]carbonylamino)methyl]phenyl-1H-5-pyrazolyl)-4-(2-tetrahydro-1H-1-pyrrolylethoxy)benzamide], the IC50 was under 1 µM in test [1] (setting [4]), 0.001 to 0.055 µM in test [1] (setting [5]) and 1 to 20 nM in test [2].
